Test results published in the supplement of paper PMC10307832.

How the values were obtained:
Experiment in all cases: relative viability (nuclei count vs DMSO), 5 days (fraction); higher = more cells survive
[1] = compound: C1=CC=C2C(=C1)C=CC(=C2SSC3=C(C=CC4=CC=CC=C43)O)O [IPA-3] + Cc1nc(NC(=O)N2CCC[C@H]2C(N)=O)sc1-c1ccnc(C(C)(C)C(F)(F)F)c1 [Alpelisib] (partner 2 µM)
Summary of the method: (§1)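 Lung cancer cell lines were seeded in 1536-well plates and dosed by pin tool the next day, with either a single drug or a fixed anchor-drug dose combined with five library-drug doses (not always all listed) spaced in √10 steps. Five days later, one step fixed the cells and stained their nuclei (final 0.05% Triton X-100, 1% formaldehyde, 1 ug/ml Hoechst), and nuclei were counted on 4× images. Relative viability is the nuclei count in treated wells divided by the count in vehicle wells, and each value is the median of duplicate plates.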

[2] = compound: Cc1ccc(-n2nc(C(C)(C)C)cc2NC(=O)Nc2ccc(OCCN3CCOCC3)c3ccccc23)cc1 [Doramapimod] + CC(=O)Nc1cccc(-n2c(=O)n(C3CC3)c(=O)c3c(Nc4ccc(I)cc4F)n(C)c(=O)c(C)c32)c1 [Trametinib] (partner 0.02 µM)
Summary of the method: as §1

[3] = compound: Cc1ccc(-n2nc(C(C)(C)C)cc2NC(=O)Nc2ccc(OCCN3CCOCC3)c3ccccc23)cc1 [Doramapimod] + O=C(CCCCCCC(=O)Nc1ccccc1)NO [Vorinostat] (partner 1 µM)
Summary of the method: as §1

[4] = compound: Cn1c(Nc2ccc(C(F)(F)F)cc2)nc2cc(Oc3ccnc(-c4ncc(C(F)(F)F)[nH]4)c3)ccc21 [RAF265] + Cc1nc(Nc2ncc(C(=O)Nc3c(C)cccc3Cl)s2)cc(N2CCN(CCO)CC2)n1 [Dasatinib] (partner 0.075 µM)
Summary of the method: as §1

Cell Line	relative viability ([1]; first compound 0.2 µM)	relative viability ([1]; first compound 0.6325 µM)	relative viability ([1]; first compound 2 µM)	relative viability ([1]; first compound 6.325 µM)	relative viability ([1]; first compound 20 µM)	relative viability ([2]; first compound 0.02 µM)	relative viability ([2]; first compound 0.06325 µM)	relative viability ([2]; first compound 0.2 µM)	relative viability ([2]; first compound 0.6325 µM)	relative viability ([2]; first compound 2 µM)	relative viability ([3]; first compound 0.02 µM)	relative viability ([3]; first compound 0.06325 µM)	relative viability ([3]; first compound 0.2 µM)	relative viability ([3]; first compound 0.6325 µM)	relative viability ([3]; first compound 2 µM)	relative viability ([4]; first compound 0.01 µM)	relative viability ([4]; first compound 0.03162 µM)	relative viability ([4]; first compound 0.1 µM)	relative viability ([4]; first compound 0.3162 µM)	relative viability ([4]; first compound 1 µM)
NCI-H2347	1.12	0.941	0.928	1.08	1.01	0.281	0.23	0.249	0.26	0.261	0.652	0.555	0.569	0.644	0.538	0.358	0.331	0.341	0.213	0.237
201T	1.02	1.01	0.997	0.936	1.04	0.736	0.715	0.729	0.772	0.71	0.994	1.03	1.06	0.672	1	0.575	0.624	0.532	0.495	0.458
PC-14	1.15	0.885	1	0.88	1.1	0.756	0.864	0.782	0.856	0.619	0.802	0.751	0.727	0.898	0.578	0.262	0.274	0.241	–	0.0905
NCI-H727	0.629	0.559	0.593	0.676	0.621	0.389	0.395	0.406	0.4	0.32	1.18	1.18	1.14	1.05	1.1	0.57	0.427	0.352	0.279	0.23
COR-L23	0.872	0.769	0.861	0.589	0.587	0.675	0.651	0.588	0.607	0.616	0.449	0.489	0.386	0.537	0.424	0.503	0.473	0.383	0.32	0.251
HOP-62	1.08	0.926	0.952	0.945	0.93	0.411	0.349	0.464	0.423	0.468	0.653	0.714	0.721	0.606	0.623	0.747	0.618	0.647	0.691	0.504
NCI-H1915	1.17	1.05	1.09	1.03	1.07	0.303	0.313	0.311	0.311	0.277	0.52	0.571	0.551	0.563	0.442	0.342	0.332	0.213	0.151	0.137
BEN	1.28	0.992	1.09	0.954	1.26	0.908	0.924	1.11	0.737	0.924	0.54	0.561	0.513	0.458	0.584	0.28	0.323	0.379	0.358	0.356
NCI-H1437	1.32	0.938	1.11	0.974	1.27	0.477	0.486	0.423	0.423	0.486	0.789	0.912	0.836	0.855	0.688	0.451	0.416	0.403	0.397	0.395
EMC-BAC-2	0.813	0.744	0.785	0.694	0.822	0.884	0.816	0.894	0.873	0.766	0.49	0.867	0.78	0.256	0.433	0.318	0.256	0.196	0.224	0.0752
NCI-H647	1.49	1.06	1.18	0.537	0.11	0.468	0.445	0.481	0.6	0.523	0.336	0.621	0.429	0.548	0.381	0.197	0.132	0.242	0.0861	0.0896
LXF-289	1.08	0.978	1.03	1.02	1.13	0.684	0.647	0.676	0.665	0.657	0.811	0.775	0.747	0.723	0.635	0.246	0.152	0.16	0.142	0.0862
LOU-NH91	0.717	0.702	0.723	0.674	0.914	0.802	0.771	0.761	0.767	0.678	0.966	0.944	0.945	0.847	0.632	0.563	0.49	0.497	0.45	0.343
NCI-H23	0.694	0.577	0.73	0.645	0.805	0.287	0.346	0.402	0.415	0.376	0.633	0.563	0.554	0.656	0.473	0.716	0.75	0.622	0.48	0.325
NCI-H1993	0.742	0.6	0.616	0.66	0.594	0.458	0.504	0.622	0.45	0.434	0.835	0.723	0.819	1.18	0.834	0.618	0.497	0.545	0.619	0.528
HCC-827	0.972	0.961	0.971	0.978	1.01	0.571	0.408	0.521	0.594	0.405	0.854	1.02	0.805	0.85	0.554	0.277	0.259	0.422	–	0.234
